The target of one series is T1, dopamine autoreceptor (Rattus norvegicus, UniProt P61169).
T1 construct: homogenized rat striatal brain tissue; from tissue; host or cells: rat striatal brain tissue homogenate
The series can be described thus: [3H]-quinpirole binding, dopamine autoreceptor affinity (D2 Quin.). The conditions noted are these: homogenized rat striatal brain tissue. The protocol:
Affinity for the dopamine autoreceptor was established by a modification of the standard experimental test procedure of Seemen and Schaus, European Journal of Pharmacology 203: 105-109, 1991, wherein homogenized rat striatal brain tissue is incubated with [^3H]-quinpirole (Quin.) at various concentrations of test compound, filtered, washed and counted in a Betaplate scintillation counter.

For another series, the system named is dopamine D2 receptor. The series can be described thus: [3H]-spiperidone binding, dopamine D2 receptor (D2 Spiper). The conditions noted are these: ratio of D2 Spiper IC50 to D2 Quin. IC50 (LowAg/HighAg).

Structures are written as SMILES. Structures can show the parent of a compound that is named as a salt.

T1 sequence (P61169 whole entry): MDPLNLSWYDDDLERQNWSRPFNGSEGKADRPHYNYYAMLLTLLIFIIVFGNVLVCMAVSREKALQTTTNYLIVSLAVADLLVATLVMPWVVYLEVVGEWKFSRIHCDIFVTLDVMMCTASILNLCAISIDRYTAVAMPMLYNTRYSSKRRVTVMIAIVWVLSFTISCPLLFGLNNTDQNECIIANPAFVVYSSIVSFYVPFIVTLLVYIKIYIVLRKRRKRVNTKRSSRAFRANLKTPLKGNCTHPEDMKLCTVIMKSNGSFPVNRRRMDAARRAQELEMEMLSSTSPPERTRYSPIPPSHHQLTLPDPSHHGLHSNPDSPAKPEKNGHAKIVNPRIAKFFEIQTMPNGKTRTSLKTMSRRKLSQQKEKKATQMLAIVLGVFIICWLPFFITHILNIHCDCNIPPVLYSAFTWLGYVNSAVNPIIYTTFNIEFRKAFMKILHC
Protocol for dopamine D2 receptor: High affinity for the dopamine D2 receptor was established by the standard experimental test procedure of Fields, et al., Brain Res., 136, 5789 (1977) and Yamamura et al., ed., Neurotransmitter Receptor Binding, Chapter 9, page 171, Raven Press, N.Y. (1978) wherein homogenized limbic brain tissue is incubated with [^3H]-spiperidone at various concentrations of test compound, filtered washed, and shaken with Hydrofluor scintillation cocktail (National Diagnostics) and counted in a Packard 460 CD scintillation counter.

As usually defined, the melting point is the temperature of the solid-liquid transition. On to `FC(F)(F)c1nc2ccc3c(c2[nH]1)OC(CNCc1ccccc1)CC3` (stereo not drawn) (as salt: oxalate) [Example 1, Benzyl-(2-trifluoromethyl-1,6,7,8-tetrahydro-9-oxa-1,3-diaza-cyclopenta[a]naphthalen-8-ylmethyl)-amine], for which the melting point came out at 244 °C.

By IC50 is commonly meant the concentration that inhibits the measured activity by half. Higher therefore signals weaker potency in that assay. `FC(F)(F)c1nc2ccc3c(c2[nH]1)OC(CNCc1ccccc1)CC3` (stereo not drawn) [Example 1, Benzyl-(2-trifluoromethyl-1,6,7,8-tetrahydro-9-oxa-1,3-diaza-cyclopenta[a]naphthalen-8-ylmethyl)-amine]: the half-inhibitory concentration (IC50) at dopamine autoreceptor was found to be 11.5 nM. Moreover, the Ratio with dopamine D2 receptor is listed as 75.

The record behind these values is patent US6541502B1, “2-(aminomethyl)-tetrahydro-9-oxa-1,3-diaza-cyclopenta[a]-naphthalenyl derivatives with antipsychotic activity” (Wyeth, priority 2001, dated 2003).
